From patent publication US9670227B2, “Thienopyrimidine derivatives, a process for their preparation and pharmaceutical compositions containing them” (LES LABORATOIRES SERVIER, priority 2013, dated 2017)

Assays:
Mcl-1 protein = Mcl-1 protein (UniProtKB primary accession number: Q07820) (Homo sapiens, UniProt Q07820); assay: Inhibition of Mcl-1 by fluorescence polarisation, Method 1; assay type: binding; details: fluorescence polarisation; Method 1, or Method 2; read-out: IC50 (M) Mcl-1 FP
Procedure, shortened: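 An 11-point DMSO dilution of compound is mixed with buffer (10 mM HEPES, 150 mM NaCl, 0.05% Tween 20, pH 7.4) carrying 1 nM fluorescein-labelled ligand and 5 nM Mcl-1, final concentrations. Displacement is monitored by fluorescence polarisation.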

[1] = system: H929 multiple myeloma tumour line; assay: In vitro cytotoxicity, Microculture Tetrazolium Assay; assay type: cell-based; details: Homo sapiens, NCI-H929, 48 h, H929 cells, 48 hours exposure, MTT; read-out: IC50 (μM) MTT H929
Protocol: The cytotoxicity studies were carried out on the H929 multiple myeloma tumour line.
The cells are distributed onto microplates and exposed to the test compounds for 48 hours.

Sequence of Mcl-1 protein (Q07820 whole entry): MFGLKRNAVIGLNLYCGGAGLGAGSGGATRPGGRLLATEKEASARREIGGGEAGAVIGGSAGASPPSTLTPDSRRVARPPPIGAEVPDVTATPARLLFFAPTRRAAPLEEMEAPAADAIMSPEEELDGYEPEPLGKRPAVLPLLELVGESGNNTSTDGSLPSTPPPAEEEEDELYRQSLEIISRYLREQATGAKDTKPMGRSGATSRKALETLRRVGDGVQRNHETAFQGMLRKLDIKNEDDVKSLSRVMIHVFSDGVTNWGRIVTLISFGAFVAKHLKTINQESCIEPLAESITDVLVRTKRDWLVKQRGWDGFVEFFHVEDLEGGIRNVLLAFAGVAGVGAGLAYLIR

## COc1cc(-c2nccc(COc3ccccc3CC(Oc3ncnc4sc(-c5ccc(F)cc5)c(-c5ccc(OCCN6CCN(C)CC6)c(Cl)c5C)c34)C(=O)O)n2)ccn1 [Example 735, (2R)-2-{[(5Sa)-5-{3-chloro-2-methyl-4-[2-(4-methylpiperazin-1-yl)ethoxy]phenyl}-6-(4-fluorophenyl)thieno[2,3-d]pyrimidin-4-yl]oxy}-3-(2-{[2-(2-methoxypyridin-4-yl)pyrimidin-4-yl]methoxy}phenyl)propanoic acid]
Mcl-1 protein
  IC50: 9.48e-10 M
[1]
  IC50: 0.007 µM

## COc1ccccc1-n1nccc1COc1ccccc1CC(Oc1ncnc2sc(-c3ccc(F)cc3)c(-c3ccc(OCCN4CCN(C)CC4)c(Cl)c3C)c12)C(=O)O [Example 738, (2R)-2-{[(5Sa)-5-{3-chloro-2-methyl-4-[2-(4-methylpiperazin-1-yl)ethoxy]phenyl}-6-(4-fluorophenyl)thieno[2,3-d]pyrimidin-4-yl]oxy}-3-(2-{[1-(2-methoxyphenyl)-1H-pyrazol-5-yl]methoxy}phenyl)propanoic acid]
Mcl-1 protein
  IC50: 3.78e-09 M
[1]
  IC50: 0.103 µM

## COc1ccccc1Cn1nccc1COc1ccccc1CC(Oc1ncnc2sc(-c3ccc(F)cc3)c(-c3ccc(OCCN4CCN(C)CC4)c(Cl)c3C)c12)C(=O)O [Example 739, (2R)-2-{[(5Sa)-5-{3-chloro-2-methyl-4-[2-(4-methylpiperazin-1-yl)ethoxy]phenyl}-6-(4-fluorophenyl)thieno[2,3-d]pyrimidin-4-yl]oxy}-3-(2-{[1-(2-methoxybenzyl)-1H-pyrazol-5-yl]methoxy}phenyl)propanoic acid]
Mcl-1 protein
  IC50: 2.32e-09 M
[1]
  IC50: 0.093 µM

## COc1ccccc1-c1nccc(COc2ccccc2CC(Oc2ncnc3sc(-c4ccc(F)cc4)c(-c4ccc(OCCN5CCNCC5)c(Cl)c4C)c23)C(=O)O)n1 [Example 744, (2R)-2-{[(5Sa)-5-{3-chloro-2-methyl-4-[2-(piperazin-1-yl)ethoxy]phenyl}-6-(4-fluorophenyl)thieno[2,3-d]pyrimidin-4-yl]oxy}-3-(2-{[2-(2-methoxyphenyl)pyrimidin-4-yl]methoxy}phenyl)propanoic acid]
Mcl-1 protein
  IC50: 9.48e-10 M
[1]
  IC50: 0.042 µM

## CCN1CCN(CCOc2ccc(-c3c(-c4ccc(F)cc4)sc4ncnc(OC(Cc5ccccc5OCc5ccnc(-c6ccccc6F)n5)C(=O)O)c34)c(C)c2Cl)CC1 [Example 745, (2R)-2-{[(5Sa)-5-{3-chloro-4-[2-(4-ethylpiperazin-1-yl)ethoxy]-2-methylphenyl}-6-(4-fluorophenyl)thieno[2,3-d]pyrimidin-4-yl]oxy}-3-(2-{[2-(2-fluorophenyl)pyrimidin-4-yl]methoxy}phenyl)propanoic acid]
Mcl-1 protein
  IC50: 9.48e-10 M
[1]
  IC50: 0.003 µM

## CCN(CC)CCOc1ccc(-c2c(-c3ccc(F)cc3)sc3ncnc(OC(Cc4ccccc4OCc4ccnc(-c5ccccc5F)n4)C(=O)O)c23)c(C)c1Cl [Example 746, (2R)-2-{[(5Sa)-5-{3-chloro-4-[2-(diethylamino)ethoxy]-2-methylphenyl}-6-(4-fluorophenyl)thieno[2,3-d]pyrimidin-4-yl]oxy}-3-(2-{[2-(2-fluorophenyl)pyrimidin-4-yl]methoxy}phenyl)propanoic acid]
Mcl-1 protein
  IC50: 3.5e-09 M
[1]
  IC50: 0.111 µM

## CCN(C)CCOc1ccc(-c2c(-c3ccc(F)cc3)sc3ncnc(OC(Cc4ccccc4OCc4ccnc(-c5ccccc5F)n4)C(=O)O)c23)c(C)c1Cl [Example 747, (2R)-2-{[(5Sa)-5-(3-chloro-4-{2-[ethyl(methyl)amino]ethoxy}-2-methylphenyl)-6-(4-fluorophenyl)thieno[2,3-d]pyrimidin-4-yl]oxy}-3-(2-{[2-(2-fluorophenyl)pyrimidin-4-yl]methoxy}phenyl)propanoic acid]
Mcl-1 protein
  IC50: 3.6e-09 M
[1]
  IC50: 0.0263 µM

## Cc1cc(-c2nccc(COc3ccccc3CC(Oc3ncnc4sc(-c5ccc(F)cc5)c(-c5ccc(OCCN(C)C)c(Cl)c5C)c34)C(=O)O)n2)c(C)cn1 [Example 751, (2R)-2-{[(5Sa)-5-{3-chloro-4-[2-(dimethylamino)ethoxy]-2-methylphenyl}-6-(4-fluorophenyl)thieno[2,3-d]pyrimidin-4-yl]oxy}-3-(2-{[2-(2,5-dimethylpyridin-4-yl)pyrimidin-4-yl]methoxy}phenyl)propanoic acid]
Mcl-1 protein
  IC50: 9.48e-10 M
[1]
  IC50: 0.008 µM

## Cc1c(-c2c(-c3ccc(F)cc3)sc3ncnc(OC(Cc4ccccc4OCc4ccnn4C(C)C)C(=O)O)c23)ccc(OCCN(C)C)c1Cl [Example 752, (2R)-2-{[(5Sa)-5-{3-chloro-4-[2-(dimethylamino)ethoxy]-2-methylphenyl}-6-(4-fluorophenyl)thieno[2,3-d]pyrimidin-4-yl]oxy}-3-(2-{[1-(propan-2-yl)-1H-pyrazol-5-yl]methoxy}phenyl)propanoic acid]
Mcl-1 protein
  IC50: 5.5e-09 M
[1]
  IC50: 0.084 µM

## COCCOc1ccccc1-c1nccc(COc2ccccc2CC(Oc2ncnc3sc(-c4ccc(F)cc4)c(-c4ccc(OCCN(C)C)c(Cl)c4C)c23)C(=O)O)n1 [Example 753, (2R)-2-{[(5Sa)-5-{3-chloro-4-[2-(dimethylamino)ethoxy]-2-methylphenyl}-6-(4-fluorophenyl)thieno[2,3-d]pyrimidin-4-yl]oxy}-3-[2-({2-[2-(2-methoxyethoxy)phenyl]pyrimidin-4-yl}methoxy)phenyl]propanoic acid]
Mcl-1 protein
  IC50: 3e-09 M
[1]
  IC50: 0.005 µM

## CCOCCn1nccc1COc1ccccc1CC(Oc1ncnc2sc(-c3ccc(F)cc3)c(-c3ccc(OCCN(C)C)c(Cl)c3C)c12)C(=O)O [Example 754, (2R)-2-{[(5Sa)-5-{3-chloro-4-[2-(dimethylamino)ethoxy]-2-methylphenyl}-6-(4-fluorophenyl)thieno[2,3-d]pyrimidin-4-yl]oxy}-3-(2-{[1-(2-ethoxyethyl)-1H-pyrazol-5-yl]methoxy}phenyl)propanoic acid]
Mcl-1 protein
  IC50: 4.7e-09 M
[1]
  IC50: 0.089 µM

## Cc1c(-c2c(-c3cccc(F)c3F)sc3ncnc(OC(Cc4ccccc4OCc4ccnn4C(C)(C)C)C(=O)O)c23)ccc(OCCN(C)C)c1Cl [Example 755, (2R)-3-{2-[(1-tert-butyl-1H-pyrazol-5-yl)methoxy]phenyl}-2-{[(5Sa)-5-{3-chloro-4-[2-(dimethylamino)ethoxy]-2-methylphenyl}-6-(2,3-difluorophenyl)thieno[2,3-d]pyrimidin-4-yl]oxy}propanoic acid]
Mcl-1 protein
  IC50: 4.65e-09 M
[1]
  IC50: 0.032 µM

## COc1ccccc1-c1nccc(COc2ccccc2CC(Oc2ncnc3sc(-c4ccc(OCc5ccccc5C)cc4)c(-c4ccc(OCCN5CCN(C)CC5)c(Cl)c4C)c23)C(=O)O)n1 [Example 767, (2R)-2-[((5Sa)-5-{3-chloro-2-methyl-4-[2-(4-methylpiperazin-1-yl)ethoxy]phenyl}-6-{4-[(2-methylbenzyl)oxy]phenyl}thieno[2,3-d]pyrimidin-4-yl)oxy]-3-(2-{[2-(2-methoxyphenyl)pyrimidin-4-yl]methoxy}phenyl)propanoic acid]
Mcl-1 protein
  IC50: 1.73e-09 M
[1]
  IC50: 0.05 µM

## COc1ccccc1-c1nccc(COc2ccccc2CC(Oc2ncnc3sc(-c4ccc(OCc5ccc(C)cc5)cc4)c(-c4ccc(OCCN5CCN(C)CC5)c(Cl)c4C)c23)C(=O)O)n1 [Example 768, (2R)-2-[((5Sa)-5-{3-chloro-2-methyl-4-[2-(4-methylpiperazin-1-yl)ethoxy]phenyl}-6-{4-[(4-methylbenzyl)oxy]phenyl}thieno[2,3-d]pyrimidin-4-yl)oxy]-3-(2-{[2-(2-methoxyphenyl)pyrimidin-4-yl]methoxy}phenyl)propanoic acid]
Mcl-1 protein
  IC50: 1.04e-09 M
[1]
  IC50: 0.039 µM

## COc1ccccc1-c1nccc(COc2ccccc2CC(Oc2ncnc3sc(-c4ccc(OCc5ccccn5)cc4)c(-c4ccc(OCCN5CCN(C)CC5)c(Cl)c4C)c23)C(=O)O)n1 [Example 769, (2R)-2-[((5Sa)-5-{3-chloro-2-methyl-4-[2-(4-methylpiperazin-1-yl)ethoxy]phenyl}-6-[4-(pyridin-2-ylmethoxy)phenyl]thieno[2,3-d]pyrimidin-4-yl)oxy]-3-(2-{[2-(2-methoxyphenyl)pyrimidin-4-yl]methoxy}phenyl)propanoic acid]
Mcl-1 protein
  IC50: 9.48e-10 M
[1]
  IC50: 0.01 µM

## COc1ccc(COc2ccc(-c3sc4ncnc(OC(Cc5ccccc5OCc5ccnc(-c6ccccc6OC)n5)C(=O)O)c4c3-c3ccc(OCCN4CCN(C)CC4)c(Cl)c3C)cc2)cc1 [Example 770, (2R)-2-[((5Sa)-5-{3-chloro-2-methyl-4-[2-(4-methylpiperazin-1-yl)ethoxy]phenyl}-6-{4-[(4-methoxybenzyl)oxy]phenyl}thieno[2,3-d]pyrimidin-4-yl)oxy]-3-(2-{[2-(2-methoxyphenyl)pyrimidin-4-yl]methoxy}phenyl)propanoic acid]
Mcl-1 protein
  IC50: 1.01e-09 M
[1]
  IC50: 0.01 µM

## COc1ccccc1-c1nccc(COc2ccccc2CC(Oc2ncnc3sc(-c4ccc(OCc5ccnn5C)cc4)c(-c4ccc(OCCN5CCN(C)CC5)c(Cl)c4C)c23)C(=O)O)n1 [Example 771, (2R)-2-[((5Sa)-5-{3-chloro-2-methyl-4-[2-(4-methylpiperazin-1-yl)ethoxy]phenyl}-6-{4-[(1-methyl-1H-pyrazol-5-yl)methoxy]phenyl}thieno[2,3-d]pyrimidin-4-yl)oxy]-3-(2-{[2-(2-methoxyphenyl)pyrimidin-4-yl]methoxy}phenyl)propanoic acid]
Mcl-1 protein
  IC50: 1.04e-09 M
[1]
  IC50: 0.019 µM

## COc1ccccc1-c1nccc(COc2ccccc2CC(Oc2ncnc3sc(-c4ccc(OCc5cccnc5)cc4)c(-c4ccc(OCCN5CCN(C)CC5)c(Cl)c4C)c23)C(=O)O)n1 [Example 772, (2R)-2-[((5Sa)-5-{3-chloro-2-methyl-4-[2-(4-methylpiperazin-1-yl)ethoxy]phenyl}-6-[4-(pyridin-3-ylmethoxy)phenyl]thieno[2,3-d]pyrimidin-4-yl)oxy]-3-(2-{[2-(2-methoxyphenyl)pyrimidin-4-yl]methoxy}phenyl)propanoic acid]
Mcl-1 protein
  IC50: 9.48e-10 M
[1]
  IC50: 0.01 µM
